Data as given in patent US7129271B2, “Compounds for pest control and methods for their use” (The United States of America as represented by the …, priority 2000, dated 2006).
In brackets after ≈: the same amount, converted by molar mass. Like-named read-outs stand apart in the source and are kept apart here.

Experiments:
[1] = test system: nymphal Ixodes scapularis; assay: Treated-vial biocidal screening, 2% acetone solutions (Example 2); assay type: in vivo; conditions: for I. scapularis nymphs (24 h), number killed/number tested: 2% acetone solution (wt./vol.) dried in vials; for I. scapularis nymphs (72 h), number killed/number tested: treated vials sat 72 h, arthropods added for final 24 h
Description: (§1) Samples of the compounds listed below Were obtained from Dr. Karchesy, a co-inventor, and screened for biocidal activities against nymphal Ixodes scapularis. In this example, 2% acetone solutions (wt./vol.) of the compounds were applied to inner surfaces of 2-dram friction cap vials. Vials and caps were treated then allowed to dry for a minimum of 4 hours before placing 10 nymphs in each container. These same vials were used to challenge additional nymphs and adult I. scapularis ticks and adult Xenopsylla cheopis fleas through five weeks to observe any possible residual activity.
(§2) Numbers in parentheses refer to length of treatment in terms of hours (h) or weeks (wk). Data is presented in terms of number killed/number tested. For test periods longer than 24 hours, the treated vials were allowed to sit for the stated period after drying (72 h, 4 wk, or 5 wk) and each group of arthropods was added to the vials for the final 24 h of the test period.

[2] = test system: adult I. scapularis ticks; assay: Treated-vial biocidal screening, residual challenge (Example 2); assay type: in vivo, Ixodes scapularis; conditions: treated vials sat 4 wk; arthropods added for final 24 h
Description: as §1, §2

[3] = test system: adult Xenopsylla cheopis fleas; assay: as above; assay type: in vivo; conditions: treated vials sat 5 wk; arthropods added for final 24 h
Description: as §1, §2

Aedes aegypti adults = assay: Treated-vial bioassay on mosquito (Example 3); assay type: in vivo; conditions: 24 hours challenge
Description: as §1
Using a bioassay method similar to that presented in Example #2, the susceptibility of Aedes aegypti adults to the five compounds presented in Example #2 at 24 hours challenge was determined to be 100% mortality except for nootkatin (20% mortality).

Ae. aegypti adults = assay: Mosquito bottle bioassay (Example 9); assay type: in vivo; conditions: 24 h exposure, 95% CI in parentheses
Description: Mosquito Colonies. Aedes aegypti adult mosquitoes were obtained from an existing colony at the Centers for Disease Control and Prevention (CDC), Division of Vector-Borne Infectious Diseases (DVBID), Fort Collins, Colo. This colony has been maintained for over fifteen years with no known history of exposure to pesticides. Mosquitoes were reared at 28° C., 85% RH, and a 14:10 h (light:dark) cycle. Larvae were grown in de-ionized water and fed ground liver powder solution ad libitum. Fourth instars were removed and placed in emergence cages, and adults were fed a 2% sucrose solution until assayed. Adults were exposed to test products at 4–7 d after emergence.
Mosquit Bioassay. Adult mosquitoes were tested using the bottle bioassay method of Brogden, W. G., and McAllister, J. C., J. Am. Mosq. Control Assoc. 14:159–64 (1998), with minor modifications. Natural product extracts were two-fold serially diluted for a total of 8 concentrations ranging from 0.002% to 0.25% in 1.5 ml of acetone. Individual dilutions were added to 250 ml Wheaton glass bottles and capped. Bottles were manipulated to evenly coat all inner surfaces. The caps were removed and bottles were allowed to air-dry overnight. Once bottles were completely dry, 10–50 adult mosquitoes were aspirated into the bottles. Mosquitoes were held in the bottles for 24 h at 23° C. and 85% RH. Morbidity and mortality were recorded at 15, 30, 45, and 60 min and 24 hour intervals. One bottle for each replicate was treated with acetone only and served as a control. The dose-mortality data was evaluated with probit analysis, using the LdP Line software, to determine LC50 and LC90 values.

[4] = test system: I. scapularis nymphs, X. cheopis adults, and Ae. aegypti adults; assay: Initial screening against all three arthropods (Example 9); assay type: in vivo; conditions: 24 hours exposure; ticks, fleas, mosquitoes
Description: Valencene-13-aldehyde was prepared by oxidation of valencene with SeO2. […] Commercial samples of nootkatone for comparison were obtained from Bedoukian Research, Inc., Danbury, Conn. (semi-synthetic crystalline) and Frutarom, Inc. N.J. (from grapefruit oil). […] The compounds identified by an asterisk—nos.

[5] = test system: ticks, fleas, formicids and termites; assay: Persistence of biocidal activity, vials treated with 2% solutions (Example 5); assay type: in vivo
Description: as §1
Persistence of biocidal activity was determined for nootkatone and valencene-11,12-epoxide by using the vials as treated with the 2% solutions of Example 2. […] At 11 weeks, the biocidal activity began to dissipate below the 100% mortality level.

nymphal I. scapularis = assay: Baseline dose-mortality, method of Maupin and Piesman 1994 (Example 7); assay type: in vivo; conditions: nymphal ticks
Source text: Baseline dose-mortalities were established for nymphal I. scapularis for nootkatone and valencene-11,12-epoxide using the method described in Maupin, G. O., and Piesman, J., J. Med. Entomol., 31:319–21 (1994).
A comparison of relative potency was made with published data for carbaryl and permethrin (Maupin and Piesman, 1994) and Alaska yellow cedar essential oil (Panella et al., J. Med. Entomol. 34:340–45 (1997) is presented in Table 6.

Culex p. pipiens = assay: Mosquito susceptibility, serial dilutions (Example 8); conditions: in vivo
Aedes aegypti = assay: Mosquito susceptibility (Example 8); conditions: in vivo
[6] = test system: ticks, fleas, and mosquitos; assay: Bioassay of Example 2 on ticks, fleas and mosquitos (Examples 4 and 6); assay type: in vivo
Description: as §1
Nootkatol was tested using the bioassay presented in Example 2.
Two nootkatone samples were compared to nootkatone isolated from Alaska yellow cedar using the method presented in Example 1. The first sample was a natural extract of nootkatone taken from grapefruit oil purchased commercially. The second sample was a synthetically produced nootkatone purchased commercially.
Both samples were compared to the nootkatone originating from Alaska yellow cedar in terms of their biocidal activities. Using a bioassay method similar to that presented in Example 2, no differences were discernible among the nootkatone samples in terms of their biocidal effect on ticks, fleas and mosquitos.

I. scapularis nymphs = assay: Tick bioassay, modified disposable pipette method, treated vials (Example 9); assay type: in vivo, Ixodes scapularis; conditions: 24 h exposure, 95% CI in parentheses
Description: Tick Colonies. […] There was no known pesticide used at this location. Ticks were maintained at 21° C., 90% RH, and received a 16:8 h (light:dark) cycle as described in […]. Med. […] Tick and Flea Bioassays. […] A control treated with acetone only was run with each series. Tick and flea susceptibility was evaluated using a modified disposable pipette method. See, Barnard, D. R., et al., J. Econ. […] Three to 4 holes were made in the plastic cap to allow for air exchange. Nymphal ticks and adult fleas were then placed directly into the vials using forceps. Vials containing ticks or fleas were placed in desiccators for 24 h at 21° C. and 90% RH. […] For each time point, if ticks were incapable of movement, maintaining normal posture, leg coordination, ability to right themselves, or any signs of life, they were considered moribund or dead.

X. cheopis adults = assay: Flea bioassay, treated vials (Example 9); assay type: in vivo; conditions: 24 h exposure, 95% CI in parentheses
Description: Flea Colonies. Adult X. cheopis fleas (1–3 wk old) were obtained from a colony founded more than eight years ago using adults received from Tom Schwan, Rocky Mountain Laboratories, Hamilton, Mont. The area from which these original adult fleas were obtained, and the resulting colony, have no known histories of pesticide exposure.
Tick and Flea Bioassays. Concentrations of the compounds were prepared by 2-fold serial dilutions of a 0.5% (wt:vol) solution of the extracts in acetone. […] A control treated with acetone only was run with each series. Tick and flea susceptibility was evaluated using a modified disposable pipette method. See, Barnard, D. R., et al., J. Econ. Entomol.
The inner surface of 2-dram friction cap vials were treated with the compound/acetone solution, or acetone only as a control, and left to air-dry overnight. Three to 4 holes were made in the plastic cap to allow for air exchange. Nymphal ticks and adult fleas were then placed directly into the vials using forceps. Vials containing ticks or fleas were placed in desiccators for 24 h at 21° C. and 90% RH. Morbidity and mortality was recorded at 1, 2, 4, 8, and 24 h after initial exposure.

CC(C)=CCc1ccc(O)c(=O)cc1C(C)C [Compound 11, Nootkatin]
I. scapularis nymphs (24 h), number killed/number tested [1]: 1/10 | I. scapularis nymphs (72 h), number killed/number tested [1]: 0/5 | I. scapularis adults (4 wk), number killed/number tested [2]: 0/5 | X. cheopis adults (5 wk), number killed/number tested [3]: 0/5 | mortality (Aedes aegypti adults): 20% | LC50 (Ae. aegypti adults): 0.852 percent concentration, wt:vol | LC90 (Ae. aegypti adults): 7.869 percent concentration, wt:vol

CC1=CCC2C(C1)C2(C)C (centres unmarked) [Compound 1, 3-Carene]
pesticidal activity in initial screening [4]: no pesticidal activity

COc1cc(C(C)C)ccc1C [Compound 3, Methyl carvacrol]
pesticidal activity in initial screening [4]: no pesticidal activity

C[C@@H]1CCC=C2CCC(C3(C)CO3)C[C@]21C (some centres unmarked) [Compound 13, valencene-11,12-epoxide]
I. scapularis nymphs (24 h), number killed/number tested [1]: 10/10 | I. scapularis nymphs (72 h), number killed/number tested [1]: 5/5 | I. scapularis adults (4 wk), number killed/number tested [2]: 5/5 | X. cheopis adults (5 wk), number killed/number tested [3]: 5/5 | mortality ([5]; 24 hour exposure at each test through 10 weeks, each group of arthropods): 100% | time at which biocidal activity began to dissipate below the 100% mortality level ([5]; vials treated with 2% solutions): 11 weeks | more effective than essential oil of Alaska yellow cedar (nymphal I. scapularis): about 98% | potency relative to essential oil of Alaska yellow cedar (nymphal I. scapularis): approximately 50 times | C. pipiens LD50 (Culex p. pipiens): <4.5 × 10^−3 | mortality rate at the lowest tested dosage (Culex p. pipiens): 64% | A. aegypti LD50 (Aedes aegypti): <4.5 × 10^−3 | LC50 (Ae. aegypti adults; Aedes aegypti, 24 h, read-out: LC50): 2.95 mg/mL (≈ 13.4 mM) | EC90 (Ae. aegypti adults; Aedes aegypti, 24 h, read-out: LC90 (the source's name)): 19.1 mg/mL (≈ 86.7 mM)

C=C(C)[C@@H]1CCC2=C[C@@H](O)C[C@@H](C)[C@]2(C)C1 [Compound 12, Nootkatol]
biocidal activity compared with nootkatene [6]: essentially equivalent to the activity of nootkatene | LC50 (I. scapularis nymphs): 0.023 (0.017–0.03) percent concentration, wt:vol | LC90 (I. scapularis nymphs): 0.059 (0.042–0.116) percent concentration, wt:vol | LC50 (I. scapularis nymphs; listed as compound 12): 0.023 percent concentration, wt:vol | LC50 (X. cheopis adults): 0.024 (0.018–0.034) percent concentration, wt:vol | LC90 (X. cheopis adults): 0.1 (0.065–0.196) percent concentration, wt:vol | LC50 (X. cheopis adults; listed as compound 12): 0.024 percent concentration, wt:vol | LC50 (Ae. aegypti adults): 0.004 (0.0032–0.0048) percent concentration, wt:vol | LC90 (Ae. aegypti adults): 0.01 (0.008–0.014) percent concentration, wt:vol | LC50 (Ae. aegypti adults; listed as compound 12): 0.004 percent concentration, wt:vol
